The assay addresses DAFP-1. Briefly: Hummel-Dreyer size-exclusion HPLC, Klotz plot. Type of assay: binding, Dendroides canadensis. The following applies: 0.10 M Na2SO4, 0.05% NaN3, 0.10 M NaPi, pH 7.00, ambient temperature; 1:1 stoichiometry. (In gel filtration, larger molecules generally elute earlier.)

As a reminder, the Kd is the equilibrium constant for the complex coming apart. High values mean a looser complex, low ones a tighter complex.

Take `NC(=O)C1=CN([C@@H]2O[C@H](COP(=O)(O)OP(=O)(O)OC[C@H]3O[C@@H](n4cnc5c(N)ncnc54)[C@H](O)[C@@H]3O)[C@@H](O)[C@H]2O)C=CC1` [NADH, β-nicotinamide adenine dinucleotide, reduced]: the Kd stood at 280 ± 20 nM.

Source of the values: PMC4872661 (Journal of molecular recognition : JMR, 2011).
